{"source": "patent US20100105864A1", "about": "“PROPHYLACTIC OR THERAPEUTIC AGENT FOR DIARRHEA” (priority 2007, published 2010)", "key": {"[1]": {"system": "Balb/c mice", "test": "Anticancer agent (5-FU)-induced diarrhea model", "assay_type": "in vivo", "procedure": "To each of Balb/c mice, an anticancer agent was administered to induce diarrhea, and γ-Glu-Val-Gly (hereinafter, referred to as “γEVG”) was studied for its inhibitory effect on diarrhea. To each of 6-week-old Balb/c mice fed with a low protein nutrient diet (4% casein diet) for 1 week, 5-FU (1 mg/animal/day) was intraperitoneally administered for consecutive 3 days. The diarrhea developed around Day 5 after the third administration of the anticancer agent, and the diarrhea appeared in all cases on Day 7. The presence or absence of diarrhea was determined based on the presence or absence of the stool in the tail head area. As the statistical test, a chi-square (χ^2) test for the control group (presence or absence of diarrhea) was employed, and p<0.05 was regarded as significant.\nEach administration of 0.01% γEVG was started in free water intake at the same time as the first administration of the anticancer agent, and continued until completion of the experiment.\nTo each of Balb/c mice, an anticancer agent was administered to induce diarrhea, and a calcium receptor activator (hereinafter, referred to as “CaSR agonist”) was studied for its inhibitory effect on diarrhea. To each of 6-week-old Balb/c mice fed with a low protein nutrient diet (4% casein diet) for 1 week, 5-FU (1 mg/animal/day) was intraperitoneally administered for consecutive 3 days. The diarrhea developed around Day 5 after the third administration of the anticancer agent, and the diarrhea appeared in all cases on Day 7. The presence or absence of diarrhea was determined based on the presence or absence of the stool in the tail head area. As the statistical test, a chi-square (χ^2) test for the control group (presence or absence of diarrhea) was employed, and p<0.05 was regarded as significant.\nThe administration of the CaSR agonist was started in free water intake at the same time as the administration of the low protein nutrient diet, and continued until completion of the experiment."}, "[2]": {"system": "rat large intestine loop", "test": "Fluid absorption in rat large intestine loop method (PGE2-stimulated)", "assay_type": "in vivo, rats", "settings": "injected into loop 30 minutes after PGE2 i.p.; measured after 1 hour", "procedure": "The cecum and large intestine were extirpated from the abdomen of each of male SD (IGS) rats under pentobarbital anesthesia, and the site 5 cm away from the area just under the cecum was ligated to form a large intestine loop Immediately after the loop had been formed, PGE2 (4 μg/ml/kg, SIGMA) was intraperitoneally administered, and after 30 minutes, a medicament, which had been dissolved in 2 ml of Tyrode's solution (NaCl: 136.9 mM, KCl: 2.7 mM, CaCl2.2H2O: 1.8 mM, MgCl2.6H2O: 1.04 mM, NaH2PO4.2H2O: 0.04 mM, NaH2PO4.2H2O: 0.04 mM, glucose: 5.55 mM, NaHCO3: 11.9 mM), was injected into the prepared loop (the medicament solution was adjusted so that the pH would be 6.5 to 7.5). As a control, Tyrode's solution free of any medicament (vehicle) was administered. After 1 hour, the loop weight, the loop weight after solution removal, and the loop area were measured to calculate a solution weight per unit area remaining in the loop.\nThe remaining solution amount per unit area was calculated with the following equation:\nRemaining solution amount per unit area(g/cm^2)=(Loop weight−Loop weight after solution removal)/Loop area.\nThe fluid absorption was evaluated by calculating an inhibitory rate from the following equation:\nInhibitory rate(%)=100−(Remaining solution amount per unit area under drug administration−Remaining solution amount per unit area in base(average))/(Remaining solution amount per unit area under vehicle administration(average)−Remaining solution amount per unit area in base(average))×100.\n(Base=case where no stimulation is given (no treatment with PGE2))"}}, "note": "Marks after values point to notes of the source that are not given here."}
{"smiles": "C[C@@H](NCCCc1cccc(C(F)(F)F)c1)c1cccc2ccccc12", "note": "[cinacalcet, (R)—N-(3-(3-(trifluoromethyl)phenyl)propyl)-1-(1-naphthyl)ethylamine]", "values": [{"measurement": "mice that did not exhibit the diarrhea symptom", "setting": "[1]; 0.05% administration group, free water intake from start of low protein diet, control all 9/9 with diarrhea", "result": "2 out of 5"}, {"measurement": "Ratio of individuals that developed diarrhea", "setting": "[1]; 0.5% in free water intake from start of low protein diet, control 9/9, p < 0.05 chi-square", "result": "3/5*"}, {"measurement": "fluid absorption (inhibitory rate from remaining solution amount per unit area)", "setting": "[2]", "result": "promoted fluid absorption"}]}
